In patent US20040028646A1, “Particle formation” (priority 2002, published 2004):

Tested on: lysozyme
Assay: Retention of original lysozyme activity after Nektar SCF processing
Format: biochemical
Details: after Nektar SCF processing at 0° C., 100 bar

With “Experiment 8.1: unconjugated lysozyme subjected to Nektar SCF processing from 20 mg/ml aqueous solution” the “Retained original (pre-Nektar SCF) activity” value was 105%.

“Experiment 8.2: conjugate of the protein lysozyme with linear mPEG of 5 kDaltons” was tested, and the “Retained original (pre-Nektar SCF) activity” value was 108%.
